Data from publication PMC3713598, “Renal Protective Role of Xiexin Decoction with Multiple Active Ingredients Involves Inhibition of Inflammation through Downregulation of the Nuclear Factor-κB Pathway in Diabetic Rats” (Evidence-based Complementary and Alternative Medicine : eCAM, 2013).
Where two headings read alike, the source gives them in different places.

Columns and labels:
[1] = Pharmacokinetics of XXD ingredients in diabetic rat plasma (LC-MS/MS); assay type: in vivo; settings: for shape of plasma concentration-time curve / Tmax: after ig administration of XXD for 12 weeks; for AUC(0-t) / Cmax / Tmax: male, Sprague-Dawley, po; for AUC(0-t) / Cmax: rat; for Tmax: diabetic rat plasma, read-out: time of peak concentrations (converted)
Description: Male Sprague-Dawley rats (90−100 g) were purchased from the Shanghai Slac Laboratory Animal Co. (Shanghai, China). The rats were housed in an air-conditioned room at 22–24°C under a 12-h dark/light cycle and were given food and water at libitum. All animal experiments were conducted in accordance with the institutional guidelines for the care and use of laboratory animals at Shanghai University of TCM. After 1-week adaptation, animals were divided into a normal control (NC) group fed a standard diet and a high-fat group received a high-fat diet. After 4 weeks, rats on the high-fat diet were treated with streptozotocin (40 mg/kg, intraperitoneal injection). […] In the clinical practice of TCM, XXD is usually prescribed at a daily dose of 46 g of herbal materials (amount to 12 g extract) for diabetic patient. When this human dose was converted into an animal dose (a person of 60 kg, and a conversion factor of 6.25 between human and rat), it was equivalent to the low dose (1.25 g/kg extract) used in this study. NC and DM were treated with vehicle (normal saline) in a matched volume. All the rats were administered the drugs via intragastric gavage (ig) once a day, for 12 weeks.
The rats treated with XXD for 12 weeks were fasted with free access to water for 12 h before the PK experiments. Blood samples were collected before dosing and at 0, 0.25, 0.5, 1, 2, 4, 6, 12, and 24 h following administration. A validated liquid chromatography-tandem mass spectrometry (LC-MS/MS) method was applied to simultaneously determine the concentration of 11 ingredients (coptisine, jatrorrhizine, berberine, palmatine, baicalin, baicalein, wogonoside, wogonin, rhein, emodin, and aloeemodin) in blood plasma. The plasma concentration-time data were analysed by noncompartmental methods with the WinNonLin software package (Pharsight Corporation, Mountain View, CA, USA) to determine PK parameters.

[2] = test system: diabetic nephropathy; settings: cited from earlier work
[3] = XXD 1.25 g/kg intragastric gavage for 12 weeks, diabetic rats, plasma, mean ± SD n = 8, read-out: AUC0–24 h
[4] = XXD 1.25 g/kg intragastric gavage for 12 weeks, diabetic rats, plasma, mean ± SD n = 8, read-out: C max
[5] = XXD 2.5 g/kg intragastric gavage for 12 weeks, diabetic rats, plasma, mean ± SD n = 8, read-out: AUC0–24 h
[6] = XXD 2.5 g/kg intragastric gavage for 12 weeks, diabetic rats, plasma, mean ± SD n = 8, read-out: C max

Compound | shape of plasma concentration-time curve ([1]; diabetic rats) | AUC(0-t) [1, 3] [ng·h/mL] | Cmax [1, 4] [ng/mL] | AUC(0-t) [1, 5] [ng·h/mL] | Cmax [1, 6] [ng/mL] | anti-DN effects [2] | Tmax [1] [min] | also measured
COc1cc2c(cc1O)CC[n+]1cc3c(OC)c(OC)ccc3cc1-2 [Jatrorrhizine, jatrorrhizine] | double peaks | 172 ± 57 | 14 ± 9 | 201 ± 152 | 21 ± 13 | – | – | –
O=C1c2cccc(O)c2C(=O)c2c(O)cc(CO)cc21 [aloeemodin] | – | – | – | – | – | – | – | plasma concentration relative to LLOQ ([1]; at about 0.5–2 h after ig XXD, below the LLOQ at other times): slightly higher than the lower limit of quantification
Cc1cc(O)c2c(c1)C(=O)c1cc(O)cc(O)c1C2=O [Emodin, emodin] | – | – | – | – | – | exhibited anti-DN effects | – | Tmax ([1]; in vivo): 30 min; AUC(0-t) ([1]; in vivo, XXD 1.25 g/kg intragastric gavage for 12 weeks, diabetic rats, plasma, mean ± SD n = 8, read-out: AUC0–24 h): 61 ± 8 ng·h/mL; Cmax ([1]; in vivo, XXD 1.25 g/kg intragastric gavage for 12 weeks, diabetic rats, plasma, mean ± SD n = 8, read-out: C max): 13 ± 7 ng/mL; AUC(0-t) ([1]; in vivo, XXD 2.5 g/kg intragastric gavage for 12 weeks, diabetic rats, plasma, mean ± SD n = 8, read-out: AUC0–24 h): 119 ± 25 ng·h/mL; Cmax ([1]; in vivo, XXD 2.5 g/kg intragastric gavage for 12 weeks, diabetic rats, plasma, mean ± SD n = 8, read-out: C max): 22 ± 9 ng/mL
COc1c(O[C@@H]2O[C@H](C(=O)O)[C@@H](O)[C@H](O)[C@H]2O)cc(O)c2c(=O)cc(-c3ccccc3)oc12 [Wogonoside, wogonoside] | double peaks | 3460 ± 894 | 1140 ± 321 | 8880 ± 2990 | 2240 ± 475 | – | 10 | –
O=C(O)c1cc(O)c2c(c1)C(=O)c1cccc(O)c1C2=O [Rhein, rhein] | – | 1100 ± 216 | 961 ± 430 | 2790 ± 937 | 1750 ± 514 | exhibited anti-DN effects | 10 | renal TGF-β1 protein expression [2]: downregulate
O=C(O)[C@H]1O[C@@H](Oc2cc3oc(-c4ccccc4)cc(=O)c3c(O)c2O)[C@H](O)[C@@H](O)[C@@H]1O [Baicalin, baicalin] | double peaks | 4700 ± 1730 | 1560 ± 570 | 16100 ± 9600 | 4310 ± 1710 | exhibited anti-DN effects | 10 | renal TGF-β1 protein expression [2]: downregulate
COc1cc2c(cc1OC)-c1cc3ccc(OC)c(OC)c3c[n+]1CC2 [Palmatine, palmatine] | – | – | – | – | – | – | – | AUC(0-t) ([1]; in vivo, 1.25 g/kg): 113 ± 69 ng·h/mL; Cmax ([1]; in vivo, 1.25 g/kg): 17 ± 13 ng/mL; AUC(0-t) ([1]; in vivo, 2.5 g/kg): 312 ± 197 ng·h/mL; Cmax ([1]; in vivo, 2.5 g/kg): 29 ± 18 ng/mL
COc1c(O)cc(O)c2c(=O)cc(-c3ccccc3)oc12 [Wogonin, wogonin] | – | 154 ± 71 | 47 ± 38 | 423 ± 307 | 149 ± 86 | – | 10 | –
